# Literature values as cited in US8889725B2, “Sugar-based bait” (Bayer Cropscience AG, priority 2006, dated 2014).
# Test system: Tapinoma sessile
compound,measurement,setting,value
"CCOP(=S)(OCC)O/N=C(\C#N)c1ccccc1 [phoxim, O,O-diethylthionophosphoryl-α-oximinophenylacetonitrile]",control of the ants,baits with 0.05% by weight of phoxim in blackberry syrup or blackberry jam,complete control
same,acceptance of the bait by ants,baits with 0.5% to 1% by weight of phoxim,repellent action
